From the supplement of paper PMC10307832

Tests used:
Experiment in all cases: relative viability (nuclei count vs DMSO), 5 days (fraction); higher = more cells survive
CUDC-101 + Crizotinib = compound: C#Cc1cccc(Nc2ncnc3cc(OC)c(OCCCCCCC(=O)NO)cc23)c1 [CUDC-101] + C[C@@H](Oc1cc(-c2cnn(C3CCNCC3)c2)cnc1N)c1c(Cl)ccc(F)c1Cl [Crizotinib] (partner 1 µM)
Summary of the method: (§1)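 After 5 days of treatment, lung cancer cells in 1536-well plates were fixed and stained in a single step (final 0.05% Triton X-100, 1% formaldehyde, 1 ug/ml Hoechst) and their nuclei counted on 4× images. Treatment had been applied by pin tool the day after seeding as one drug alone or as a fixed anchor-drug dose with five library-drug doses (not always all listed) in √10 steps. Relative viability is the nuclei count of treated wells divided by that of vehicle wells, and values are medians of duplicate plates.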

[1] = compound: C1=CC=C2C(=C1)N=C(S2)C(C#N)C3=NC(=NC=C3)NCCC4=CN=CC=C4 + Nc1nc2[nH]cc(CCc3ccc(C(=O)N[C@@H](CCC(=O)O)C(=O)O)cc3)c2c(=O)[nH]1 [Pemetrexed] (partner 0.2 µM)
Summary of the method: as §1

Vandetanib + Navitoclax = compound: COc1cc2/c(=N/c3ccc(Br)cc3F)nc[nH]c2cc1OCC1CCN(C)CC1 [Vandetanib] + CC1(C)CCC(c2ccc(Cl)cc2)=C(CN2CCN(c3ccc(C(=O)NS(=O)(=O)c4ccc(N[C@H](CCN5CCOCC5)CSc5ccccc5)c(S(=O)(=O)C(F)(F)F)c4)cc3)CC2)C1 [Navitoclax] (partner 0.5 µM)
Summary of the method: as §1

Vandetanib + Alpelisib = compound: COc1cc2/c(=N/c3ccc(Br)cc3F)nc[nH]c2cc1OCC1CCN(C)CC1 [Vandetanib] + Cc1nc(NC(=O)N2CCC[C@H]2C(N)=O)sc1-c1ccnc(C(C)(C)C(F)(F)F)c1 [Alpelisib] (partner 2 µM)
Summary of the method: as §1

Cell Line	relative viability (CUDC-101 + Crizotinib; first compound 0.01 µM)	relative viability (CUDC-101 + Crizotinib; first compound 0.03162 µM)	relative viability (CUDC-101 + Crizotinib; first compound 0.1 µM)	relative viability (CUDC-101 + Crizotinib; first compound 0.3162 µM)	relative viability (CUDC-101 + Crizotinib; first compound 1 µM)	relative viability ([1]; first compound 0.005 µM)	relative viability ([1]; first compound 0.01581 µM)	relative viability ([1]; first compound 0.05 µM)	relative viability ([1]; first compound 0.1581 µM)	relative viability ([1]; first compound 0.5 µM)	relative viability (Vandetanib + Navitoclax; first compound 0.02 µM)	relative viability (Vandetanib + Navitoclax; first compound 0.06325 µM)	relative viability (Vandetanib + Navitoclax; first compound 0.2 µM)	relative viability (Vandetanib + Navitoclax; first compound 0.6325 µM)	relative viability (Vandetanib + Navitoclax; first compound 2 µM)	relative viability (Vandetanib + Alpelisib; first compound 0.02 µM)	relative viability (Vandetanib + Alpelisib; first compound 0.06325 µM)	relative viability (Vandetanib + Alpelisib; first compound 0.2 µM)	relative viability (Vandetanib + Alpelisib; first compound 0.6325 µM)	relative viability (Vandetanib + Alpelisib; first compound 2 µM)
HCC-78	0.365	0.298	0.354	0.301	0.103	0.793	0.886	0.92	0.92	0.784	0.732	0.649	0.828	0.887	0.573	0.346	0.32	0.337	0.321	0.288
HCC-366	0.531	0.535	0.557	0.5	0.372	0.177	0.146	0.145	0.165	0.164	1.09	1	1.06	1.06	1.05	0.44	0.289	0.328	0.528	0.226
HCC-827	0.966	0.501	0.298	0.218	0.174	0.238	0.239	0.25	0.264	0.259	1.04	0.975	0.993	0.464	0.153	1.02	0.986	0.752	0.233	0.167
HOP-62	0.95	0.753	1.03	0.925	0.666	0.344	0.337	0.33	0.345	0.351	0.975	1.07	0.999	1.18	1.01	0.814	0.836	0.746	0.972	0.993
LC-2-ad	0.454	0.482	0.432	0.436	0.343	0.259	0.328	0.293	0.271	0.278	0.44	0.482	0.548	0.403	0.243	0.815	0.876	0.898	0.802	0.498
LCLC-97TM1	0.549	0.386	0.443	0.343	0.17	0.196	0.185	0.181	0.172	0.198	0.399	0.556	0.345	0.403	0.411	0.223	0.243	0.204	0.22	0.209
LK-2	0.249	0.229	0.21	0.246	0.225	0.237	0.27	0.295	0.325	0.281	0.761	0.759	0.913	0.936	0.721	0.951	1.04	1.11	1.16	1.11
LOU-NH91	0.701	0.605	0.699	0.521	0.539	0.403	0.429	0.418	0.375	0.441	0.709	0.561	0.553	0.535	0.445	0.753	0.619	0.539	0.551	0.481
LU99A	0.516	0.585	0.458	0.45	0.256	0.215	0.214	–	0.193	0.19	0.794	0.73	0.734	0.679	0.761	0.52	0.446	0.511	0.414	0.596
LXF-289	0.804	0.835	0.828	0.736	0.577	0.832	0.979	0.876	0.912	0.857	0.94	0.921	1	0.937	0.934	1.05	1	1.02	1.03	1.04
NCI-H23	0.68	0.442	0.639	0.547	0.495	–	0.511	0.701	0.779	0.641	0.782	0.8	0.769	0.914	0.688	0.609	0.613	0.566	0.772	0.532
NCI-H322M	0.958	0.903	0.774	0.748	0.538	0.608	0.602	0.569	0.582	0.607	1.14	1.1	1.24	1.04	1.15	0.772	0.746	0.777	0.709	0.866
NCI-H441	0.833	0.739	0.87	0.843	0.514	0.317	0.279	0.238	0.276	0.265	0.627	0.529	0.754	0.368	0.578	0.795	0.535	0.896	0.848	0.728
NCI-H460	1.04	0.982	0.719	1.06	0.787	–	0.0618	0.0556	0.0607	0.0831	1.13	0.999	0.0215	1.25	1.09	0.503	0.556	0.0233	0.434	0.419
NCI-H520	0.743	–	0.756	0.636	0.316	0.528	0.652	0.784	0.834	0.818	0.946	1.04	1.08	1.07	1.04	0.832	0.924	1.04	0.868	0.921
NCI-H596	0.675	1	1.01	0.979	0.536	0.464	0.517	0.485	0.58	0.495	0.942	0.976	1.05	0.94	0.795	0.515	0.518	0.618	0.593	0.453

Cell Line	relative viability (CUDC-101 + Crizotinib; first compound 0.01 µM)	relative viability (CUDC-101 + Crizotinib; first compound 0.03162 µM)	relative viability (CUDC-101 + Crizotinib; first compound 0.1 µM)	relative viability (CUDC-101 + Crizotinib; first compound 0.3162 µM)	relative viability (CUDC-101 + Crizotinib; first compound 1 µM)	relative viability ([1]; first compound 0.005 µM)	relative viability ([1]; first compound 0.01581 µM)	relative viability ([1]; first compound 0.05 µM)	relative viability ([1]; first compound 0.1581 µM)	relative viability ([1]; first compound 0.5 µM)	relative viability (Vandetanib + Navitoclax; first compound 0.02 µM)	relative viability (Vandetanib + Navitoclax; first compound 0.06325 µM)	relative viability (Vandetanib + Navitoclax; first compound 0.2 µM)	relative viability (Vandetanib + Navitoclax; first compound 0.6325 µM)	relative viability (Vandetanib + Navitoclax; first compound 2 µM)	relative viability (Vandetanib + Alpelisib; first compound 0.02 µM)	relative viability (Vandetanib + Alpelisib; first compound 0.06325 µM)	relative viability (Vandetanib + Alpelisib; first compound 0.2 µM)	relative viability (Vandetanib + Alpelisib; first compound 0.6325 µM)	relative viability (Vandetanib + Alpelisib; first compound 2 µM)
NCI-H647	1.27	1.03	1.09	0.909	0.533	0.165	0.175	0.182	0.179	0.19	0.943	1.09	1.16	1.17	1.06	1.03	1.1	1.11	1.1	0.786
NCI-H838	0.87	0.74	0.832	0.669	0.382	0.216	0.242	0.243	0.262	0.249	1.13	1.13	1.15	1.12	1.07	0.98	0.957	0.991	1.04	1.05
NCI-H1355	1.06	1.02	1.15	1.07	0.906	1.05	1.01	1.02	1.13	1.02	0.931	0.809	0.577	1.01	1.03	0.811	0.772	0.466	0.958	0.822
NCI-H1437	1.13	0.862	0.963	0.941	0.916	0.329	0.298	0.321	0.335	0.311	1.03	1.06	1.16	1.08	1.08	0.922	0.965	0.94	1	0.902
NCI-H1651	0.91	0.803	0.91	0.934	0.813	0.41	0.527	0.597	0.708	0.381	0.927	1.11	1.08	1.07	0.928	0.912	0.905	0.953	1.02	0.837
NCI-H1666	0.91	0.969	1.15	1.09	0.791	0.835	0.823	0.832	0.852	0.827	0.83	0.861	0.951	0.88	0.46	0.89	0.764	0.793	0.668	0.401
NCI-H1734	0.778	0.699	0.566	0.583	0.397	0.412	0.405	0.416	0.434	0.418	0.854	0.766	0.801	0.804	0.818	0.673	0.684	0.737	0.756	0.678
NCI-H1755	0.81	0.896	0.828	0.942	0.743	0.456	0.466	0.413	0.441	0.424	1.03	0.979	0.968	0.973	0.972	0.935	0.888	0.872	0.896	0.858
NCI-H1792	0.971	0.944	0.942	1.04	0.953	–	0.889	0.875	1.22	0.335	0.676	0.573	0.599	0.626	0.609	0.676	0.672	0.694	0.705	0.565
NCI-H1915	0.982	0.941	0.889	0.837	0.627	–	0.506	0.434	0.563	0.481	0.769	0.781	0.772	0.794	0.772	0.964	1.05	1.04	1.08	1.05
NCI-H1944	1.07	1.09	0.954	0.918	0.491	0.605	0.665	0.66	0.558	0.576	1	1.05	1.05	1.01	0.86	0.781	0.81	0.807	0.757	0.744
NCI-H1975	1.05	1.02	0.964	1.1	0.872	0.286	0.303	0.295	0.331	0.26	1.14	1.13	1.13	0.992	1.1	0.583	0.573	0.597	0.63	0.477
NCI-H1993	0.93	0.783	0.766	0.754	0.77	0.53	0.627	0.555	0.728	0.542	0.932	0.942	0.853	0.838	0.789	0.668	0.706	0.648	0.582	0.703
NCI-H2009	1.02	0.992	1.11	0.991	1.03	0.992	1.05	0.98	1.09	1.02	1.12	1.15	1.24	1.19	1.11	1.16	1.07	1.2	1.15	1.15
NCI-H2023	0.623	0.602	0.622	0.628	0.558	0.211	0.26	0.205	0.264	0.213	0.898	0.971	1.04	1.01	0.996	0.568	0.49	0.732	0.524	0.486
